These results are taken from patent US9421237B2, “Tripeptide boronic acid or boronic ester, preparative method and use thereof” (PEKING UNIVERSITY, priority 2009, dated 2016).

In data set [1] the target is T1, 20S proteasome extracted from rat liver, chymotryptic-like (CT-L) activity (Rattus norvegicus, UniProt P18421+P28075).
T1 construct: 20S proteasome extracted from rat liver; from tissue; host or cells: rat liver
The data set can be described thus: Proteasome inhibition, chymotryptic-like (CT-L) activity, fluorescent peptide Suc-leu-leu-Val-Tyr-AMC. Type of data set: biochemical. The settings on record: rat liver 20S proteasome, 37° C., 1 h. As for the experimental part: (§1) The activities of the proteasome were assayed using fluorescent peptides: Suc-leu-leu-Val-Tyr-AMC (Suc represents succinyl, and AMC represents 7-amino-4-methylcoumarin, purchased from SIGMA) for determining chymotryptic-like (CT-L) activity; Z-Ala-Arg-Arg-AMC (Z represents benzyloxycarbonyl, purchased from Calbiochem) for determining trypsin-like (TL) activity; and Z-leu-leu-Glu-βNA (βNA represents β-naphtylamide, purchased from SIGMA) for determining peptidyl-glutamyl-peptide-hydrolyzing (PGPH) enzyme activity.
(§2) Method for the aforesaid activity assays is as follows: 1 μg of 20S proteasome extracted from rat liver was incubated with a 100 μL solution containing various concentrations of compounds, 50 μM fluorescent peptides and 20 mM Tris-HCl at 37° C. for 1 h, respectively. The fluorescence released from AMC and RNA reagents was measured by a spectrofluorimeter Fluostar OPTIMA and BMG Germany at excitation/emission wavelengths of 380/440 nm and 335/410 nm, respectively. 0.1% DMSO was used as a solvent control. Compared with the fluorescence of solvent control, an inhibition rate was calculated.

Data set [2] deals with T2, 20S proteasome extracted from rat liver, trypsin-like (TL) activity (Rattus norvegicus, UniProt P40112+Q9JHW0).
T2 construct: 20S proteasome extracted from rat liver; from tissue; host or cells: rat liver
In words: Proteasome inhibition, trypsin-like (TL) activity, fluorescent peptide Z-Ala-Arg-Arg-AMC. To be noted: rat liver 20S proteasome, 37° C., 1 h; read-out: T-L (IC50). In kind it is biochemical. How it is done:
as §1
as §2, with “calculated. Said assays used anticancer drug bortezomib (leukemia drug), namely PS341 as compound for positive control.” for “calculated.”

The target in data set [3] is T3, 20S proteasome extracted from rat liver, peptidyl-glutamyl-peptide-hydrolyzing (PGPH) enzyme activity (Rattus norvegicus, UniProt P28073+Q9JHW0).
T3 construct: 20S proteasome extracted from rat liver; from tissue; host or cells: rat liver
In words: Proteasome inhibition, PGPH activity, fluorescent peptide Z-leu-leu-Glu-βNA. In kind it is biochemical. The settings on record: rat liver 20S proteasome, 37° C., 1 h. As for the experimental part:
as §1
as §2, with “calculated. Said assays used anticancer drug bortezomib (leukemia drug), namely PS341 as compound for positive control.” for “calculated.”

The test system of data set [4] is HL-60 human leukemia cell. In words: Preliminary anti-tumor screening in vitro, MTT method. In kind it is cell-based. The arrangement: key to Test results: +++: inhibition rates at three doses are greater than 50%; ++: inhibition rates at two doses are greater than 50%; +: inhibition rate at one dose is greater than 50%. To be noted: HL-60, MTT; for Test results: number of doses with inhibition > 50%; for inhibition at 0.05 µM / inhibition at 0.5 µM / inhibition at 5 µM: Homo sapiens, read-out: Inhibition rate %. How it is done: (§3) The test methods used in this test example is the routine method for anti-tumor activities test in pharmaceutical area, for example, referring to the following reference: (J. Immunol Method, 1983, 65, 55).
(§4) Test models: A: MTT method (HL-60 human leukemia); B: SRB method (BGC-823 human gastric cancer); C: SRB method (Bel-7402 human hepatocarcinoma); D: SRB method (KB human nasopharyngeal carcinoma).
(§5) The aforesaid tests were carried out with the compounds of Examples 1-26 in the present invention, test results are shown in Tables 2-5.
On the technique in general: Tetrazolium dyes change colour on reduction, which living cells bring about.

The test system of data set [5] is BGC-823 human gastric cancer cell. The data set can be described thus: Preliminary anti-tumor screening in vitro, SRB method. In kind it is cell-based. Further details: key to Test results: +++: inhibition rates at three doses are greater than 50%; ++: inhibition rates at two doses are greater than 50%; +: inhibition rate at one dose is greater than 50%. The settings on record: BGC-823, SRB; for Test results: number of doses with inhibition > 50%; for inhibition at 0.05 µM / inhibition at 0.5 µM / inhibition at 5 µM: Homo sapiens, read-out: Inhibition rate %. As for the experimental part: as §3, §4, §5

Data set [6] has as its system Bel-7402 human hepatocarcinoma cell. Described as above. In kind it is cell-based. Further details: key to Test results: +++: inhibition rates at three doses are greater than 50%; ++: inhibition rates at two doses are greater than 50%; +: inhibition rate at one dose is greater than 50%. To be noted: Bel-7402, SRB; for Test results: number of doses with inhibition > 50%; for inhibition at 0.05 µM / inhibition at 0.5 µM / inhibition at 5 µM: Homo sapiens, read-out: Inhibition rate %. How it is done:
as §3, §4, §5

Data set [7] has as its system KB human nasopharyngeal carcinoma cell. The data set is described as above. Type of data set: cell-based. The arrangement: key to Test results: +++: inhibition rates at three doses are greater than 50%; ++: inhibition rates at two doses are greater than 50%; +: inhibition rate at one dose is greater than 50%. The settings on record: for inhibition at 0.05 µM / inhibition at 0.5 µM / inhibition at 5 µM: Homo sapiens, read-out: Inhibition rate %; for Test results: number of doses with inhibition > 50%. As for the experimental part:
as §3, §4, §5

Molecules are shown by their SMILES.

Compound `CC(C)C[C@H](NC(=O)[C@H](Cc1ccc2ccccc2c1)NC(=O)[C@H](CC(C)C)NC(=O)c1cnccn1)B1OC2CC3C[C@@H](C3(C)C)[C@]2(C)O1` (stereo partly drawn) [Compound 5f, Pinanediol N-pyrazineformyl-L-leucyl-L-naphthylalanyl-L-leucineborate] yielded a melting point of 140 to 142 °C. The compound also came in with a concentration for half-maximal inhibition (IC50) in data set [1] of 0.37 ± 0.141 nM. Besides, the IC50 in data set [2] was more than 20 nM. In data set [3], this compound returned an IC50 of 3.91 ± 1.72 nM. Besides, in data set [4], the Test results was “++”, the inhibition at 0.05 µM is -19.9%, the inhibition at 0.5 µM was 81.9% and the inhibition at 5 µM was 88.6%. In addition, in data set [5], the Test results is reported as “++”, the inhibition at 0.05 µM came to 38.3%, the inhibition at 0.5 µM turned out to be 89.2% and the inhibition at 5 µM was found to be 83%. Also, in data set [6], the Test results is recorded as “++”, the inhibition at 0.05 µM was found to be 3.18%, the inhibition at 0.5 µM turned out to be 83.9% and the inhibition at 5 µM turned out to be 92.3%. In data set [7], the inhibition at 0.05 µM was determined as 3.74%, the inhibition at 0.5 µM is 93.4%, the inhibition at 5 µM was found to be 95.3% and the Test results is listed as “++”.

In turn, `CC(C)C[C@H](NC(=O)[C@H](Cc1ccccc1)NC(=O)[C@H](CC(C)C)NC(=O)c1cnccn1)B(O)O` [Compound 6e, N-pyrazineformyl-L-leucyl-L-phenylalanyl-L-leucine Boronic Acid] displayed a melting point of 113 to 116 °C. The compound also registered an IC50 in data set [1] of 0.19 ± 0.017 nM. Further, the IC50 in data set [2] was more than 20 nM. The same compound displayed a half-inhibitory concentration (IC50) in data set [3] of 5.14 ± 2.17 nM.

Consider `CC(C)C[C@H](NC(=O)[C@H](Cc1ccccc1)NC(=O)[C@H](Cc1ccccc1)NC(=O)c1cnccn1)B1OC2CC3C[C@@H](C3(C)C)[C@]2(C)O1` (stereo partly drawn) [Compound 5a, Pinanediol N-pyrazineformyl-L-phenylalanyl-L-phenylalanyl-L-leucine Borate], for which the melting point lay in the range of 78 to 80 °C. Moreover, it took 0.402 ± 0.024 nM to reach half-maximal inhibition in data set [1] (IC50). The IC50 in data set [2] is more than 20 nM. This compound displayed an IC50 in data set [3] of 8.33 ± 2.49 nM.

As to `CC(C)C[C@H](NC(=O)[C@H](Cc1ccccc1)NC(=O)[C@H](Cc1ccccc1)NC(=O)c1cnccn1)B(O)O` [Compound 6a, N-pyrazineformyl-L-phenylalanyl-L-phenylalanyl-L-leucine Boronic Acid], the melting point lay in the range of 112 to 114 °C. Moreover, the IC50 in data set [1] came to 0.546 ± 0.077 nM. For the same compound, the IC50 in data set [2] is more than 20 nM. Besides, the IC50 in data set [3] amounted to 10.9 ± 3.21 nM.

In turn, `CC(C)C[C@H](NC(=O)[C@H](Cc1ccc(O)cc1)NC(=O)[C@H](Cc1ccccc1)NC(=O)c1cnccn1)B1OC2CC3C[C@@H](C3(C)C)[C@]2(C)O1` (stereo partly drawn) [Compound 5c, Pinanediol N-pyrazineformyl-L-phenylalanyl-L-tyrosyl-L-leucine Borate] showed a melting point of 119 to 120 °C. In addition, half-maximal inhibition in data set [1] (IC50) required 0.335 ± 0.031 nM. Moreover, the IC50 in data set [2] was more than 20 nM. Also, the concentration for half-maximal inhibition (IC50) in data set [3] was found to be 5.39 ± 0.368 nM. Moreover, in data set [4], the Test results is recorded as “+”, the inhibition at 0.05 µM was -10.5%, the inhibition at 0.5 µM was 1.94% and the inhibition at 5 µM came to 99%. Moreover, in data set [5], the Test results is “++”, the inhibition at 0.05 µM is 3.19%, the inhibition at 0.5 µM is 56% and the inhibition at 5 µM was found to be 96.1%. Further, in data set [6], the Test results is given as “+”, the inhibition at 0.05 µM amounted to 4.18%, the inhibition at 0.5 µM was 16.6% and the inhibition at 5 µM was found to be 91.1%. In data set [7], the inhibition at 0.05 µM amounted to 1.84%, the inhibition at 0.5 µM was found to be 29.8%, the inhibition at 5 µM worked out at 91.4% and the Test results is listed as “+”.

On to `CC(C)C[C@H](NC(=O)[C@H](Cc1ccccc1)NC(=O)[C@H](Cc1ccc2ccccc2c1)NC(=O)c1cnccn1)B1OC2CC3C[C@@H](C3(C)C)[C@]2(C)O1` (stereo partly drawn) [Compound 5b, Pinanediol N-pyrazineformyl-L-naphthylalanyl-L-phenylalanyl-L-leucine Borate], for which the melting point fell in the range of 98 to 100 °C. In data set [1], the IC50 came out at 0.22 ± 0.106 nM. Besides, the half-maximal inhibitory concentration (IC50) in data set [2] was more than 20 nM. The compound also showed an IC50 in data set [3] of more than 20 nM. For the same compound, in data set [4], the Test results is given as “++”, the inhibition at 0.05 µM amounted to 21.1%, the inhibition at 0.5 µM came out at 88.1% and the inhibition at 5 µM worked out at 88.1%. Also, in data set [5], the Test results was “+++”, the inhibition at 0.05 µM was found to be 68.6%, the inhibition at 0.5 µM came out at 94.8% and the inhibition at 5 µM amounted to 96.5%. In addition, in data set [6], the Test results is on record as “++”, the inhibition at 0.05 µM was found to be 35.9%, the inhibition at 0.5 µM came out at 66.7% and the inhibition at 5 µM was found to be 91%. Moreover, in data set [7], the inhibition at 0.05 µM amounted to 40.4%, the inhibition at 0.5 µM was determined as 95.1%, the inhibition at 5 µM is 95.8% and the Test results is “++”.

`CC(C)C[C@H](NC(=O)[C@H](Cc1ccccc1)NC(=O)[C@H](Cc1ccc(O)cc1)NC(=O)c1cnccn1)B1OC2CC3C[C@@H](C3(C)C)[C@]2(C)O1` (stereo partly drawn) [Compound 5d, Pinanediol N-pyrazineformyl-L-tyrosyl-L-phenylalanyl-L-leucine Borate] gave a melting point of 90 to 92 °C. In data set [1], this compound yielded a half-inhibitory concentration (IC50) of 0.295 ± 0.049 nM. Also, the IC50 in data set [2] is more than 20 nM. The compound also came in with an IC50 in data set [3] of 4.76 ± 1.31 nM. Also, in data set [4], the Test results is on record as “+”, the inhibition at 0.05 µM is -11.8%, the inhibition at 0.5 µM is 35.9% and the inhibition at 5 µM was determined as 88.9%. For the same compound, in data set [5], the Test results is given as “++”, the inhibition at 0.05 µM was 23.6%, the inhibition at 0.5 µM was found to be 93.6% and the inhibition at 5 µM came out at 97.8%. Also, in data set [6], the Test results was “++”, the inhibition at 0.05 µM was determined as 5.52%, the inhibition at 0.5 µM is 52% and the inhibition at 5 µM was 93.1%. Also, in data set [7], the inhibition at 0.05 µM is 0.83%, the inhibition at 0.5 µM is 73.2%, the inhibition at 5 µM was determined as 94.8% and the Test results is “++”.

For the compound `CC(C)C[C@H](NC(=O)[C@H](CC(C)C)NC(=O)[C@H](Cc1ccccc1)NC(=O)c1cnccn1)B1OC2CC3C[C@@H](C3(C)C)[C@]2(C)O1` (stereo partly drawn) [Compound 5k, Pinanediol N-pyrazineformyl-L-phenylalanyl-L-leucyl-L-leucine Borate], the melting point was in the range of 68 to 70 °C. The compound further gave an IC50 in data set [1] of 0.287 ± 0.019 nM. In addition, the IC50 in data set [2] was more than 20 nM. In data set [3], this compound registered an IC50 of 2.73 ± 1.04 nM.

The IC50 is the concentration needed to halve the response being measured. What is called inhibition is the change of the read-out against control, counted positive when it falls. Usually melting point stands for the temperature, or range, at which the solid turns liquid.
